According to US9702869B2, “Assays, antibodies, immunogens and compositions related to 5-FU” (WELLSTAT DIAGNOSTICS, LLC, priority 2011, dated 2017):

What was measured:
monoclonal antibody 61C6 = test: Cross-reactivity evaluation with lyophilized reagents (Bi-mAb-Beads capture, TAG Plus 1-5C-5-FU-BSA detector); assay type: binding, Balb/c mouse
Method: This experiment was performed to test the specificity of the monoclonal antibody 61C6 against 5-FU analogues, pro-drugs and interference reagents. […] In this Example, the components of 5-FU assay (capture, detector) were lyophilized and the sample (calibrator, controls, and spiked plasma samples) were added directly to the lyophilized reagent pellets.
The assay was prepared using the following protocol. […] The capture and the detector solutions were aliquoted (20 μL) and lyophilized.
The assay procedure was as follows. The electrostatic on the surface of the microplate was reduced by using a Zerostat Antistatic Device prior to use. The device was pointed on the surface of the microplate, squeezed and the trigger released a few times across the microplate. 1 lyophilized pellet of each capture and detector reagent was transferred into plate wells using the Vacuum Pick-Up System. A hollow needle tip was attached onto the pick-up pen, and the finger controlled vacuum was used for picking up (the index finger was placed over the hole so that vacuum was drawn through the needle) or releasing pellet (lifting the index finger off of the hole). On a metal plate holder of a Digital Heat Block set at 37±2° C., 50 μL of each calibrator, control, and sample (in this case cross-reactivity panels) were added in duplicate directly into plate wells containing 2 lyophilized pellets. The plate was placed on the Micromix shaker set at Form 8 & Amp 6 for 30 seconds to mix. The plate was then placed in the metal plate holder of a Digital Heat Block set at 37±2° C. The plate was covered with a plate cover and incubated for 5±0.5 minutes.

mAb 61C6 = test: Competitive ECL cross-reactivity test in human plasma with and without 5-FU; settings: for Cross-Reactivity (%): human plasma, chemicals 10 μg/mL, chemotherapy drugs 100 μg/mL; for cross-reactivity: with and without 5-FU, Table 5
[1] = tested on: anti-5-FU 61C6 monoclonal antibody; test: Assay timing evaluation of competitive 5-FU ECL immunoassay; assay type: binding, Balb/c mouse; settings: 25 ng/mL of 5-FU in charcoal stripped plasma
antibody 61C6 = test: 5-FU ECL assay with antibody 61C6, summary of cross-reactivity; assay type: binding, Balb/c mouse; settings: 5-FU assay with antibody 61C6
Method: The capture reagent 1-5C-5-FU-M270 beads appeared to be stable at 2-8° C. for at least 40 hours. […] The functional sensitivity was determined to be approximately 10 ng/mL (which is an estimate of functional sensitivity based on the calibrator curve).

[2] = Without 5-FU, lyophilized reagents, human plasma

| Compound | % Cross-React (monoclonal antibody 61C6; With 1000 ng/mL Spiked 5-FU) [%] | Cross-Reactivity (%) (mAb 61C6; With 5-FU (379 ng/mL)) | Cross-Reactivity (%) (mAb 61C6; Without 5-FU) | cross-reactivity (mAb 61C6) | % Cross-React (monoclonal antibody 61C6; With 75 ng/mL Spiked 5-FU) [%] | % Cross-React (monoclonal antibody 61C6; [2]) [%] | ECL signal compared to CAL1 ([1]; 5 minutes incubation at 37° C.) [%] | ECL signal compared to CAL1 ([1]; other incubation timing (10, 15 minutes)) [%] | cross-reactivity (antibody 61C6) |
| --- | --- | --- | --- | --- | --- | --- | --- | --- | --- |
| N.N.[Cl][Pt][Cl] [Cisplatin] | 0.1 | −0.04 | 0.001 | essentially undetectable |  |  |  |  |  |
| O=c1cc[nH]c(=O)[nH]1 [Uracil] | 2.6 | 0.11 | 0.94 |  | 3.4 | 1.9 |  |  |  |
| Cc1c[nH]c(=O)[nH]c1=O [Thymine] | 2.2 | 0.80 | 0.59 |  | 2.5 | 1.0 |  |  |  |
| CN(Cc1cnc2nc(N)nc(N)c2n1)c1ccc(C(=O)N[C@@H](CCC(=O)O)C(=O)O)cc1 [Methotrexate] | 0.1 | −0.02 | 0.000 | essentially undetectable | 0.0 | 0.0 |  |  |  |
| Nc1nc(=O)c2c([nH]1)NCC(CNc1ccc(C(=O)N[C@@H](CCC(=O)O)C(=O)O)cc1)N2C=O (mixture of isomers) [Folinic Acid] | 0.0 | −0.01 | 0.000 | essentially undetectable | 0.1 | 0.0 |  |  |  |
| Hemoglobin | −0.1 |  |  |  | 0.0 | 0.0 |  |  |  |
| CCCCCOC(=O)Nc1nc(=O)n([C@@H]2O[C@H](C)[C@@H](O)[C@H]2O)cc1F [Capecitabine] | 0.6 | −0.13 | 0.00 |  | 0.7 | 0.0 |  |  |  |
| Cc1cn([C@H]2C[C@H](O)[C@@H](CO)O2)c(=O)[nH]c1=O [Thymidine] | 1.3 | 0.13 | 0.05 |  | 1.0 | 0.2 |  |  |  |
| O=c1[nH]cc(F)c(=O)[nH]1 [5-FU, 5-Fluorouracil] |  |  |  |  |  |  | 61 | 78 |  |
| O=C1[O][Pt]2([NH][C@@H]3CCCC[C@H]3[NH]2)[O]C1=O [Oxaliplatin] | 0.0 | 0.01 | 0.000 | essentially undetectable |  |  |  |  |  |
| O=c1ccn([C@@H]2O[C@H](CO)[C@@H](O)[C@H]2O)c(=O)[nH]1 [Uridine] | 0.9 | 0.16 | 0.21 |  | 1.6 | 0.5 |  |  |  |
| O=C1NCC(F)C(=O)N1 (centres unmarked) [DH5FU, 5-Fluorodihydropyrimidine-2,4-dione] | 1.0 | 1.74 | 2.62 |  |  |  |  |  |  |
| CCc1c2c(nc3ccc(OC(=O)N4CCC(N5CCCCC5)CC4)cc13)-c1cc3c(c(=O)n1C2)COC(=O)[C@]3(O)CC [Irinotecan] | 0.3 |  |  | essentially undetectable | 0.1 |  |  |  |  |
| O=c1[nH]c(=O)n(C2CCCO2)cc1F (centres unmarked) [Tegafur] | 45 | 15.5 | 16.2 |  | 56 | 42 |  |  | less than 12% |
